Series [1] is described as follows: Stability in potassium phosphate buffers of pH 1.3, 5.5 and 7.4. It is filed as physicochemical. The settings on record: potassium phosphate buffer; for remaining at 1 h, 2 µM: read-out: % Remaining at 60 min. The method, then:
The stability of HM-10/10 under varying pH conditions was determined by adding the compound to potassium phosphate buffers of pH 1.3 (acidic), 5.5 (slightly acidic), and 7.4 (physiological pH), with 7-Ethoxycoumarin used as a control article. Under acidic and slightly acidic conditions, the half-life of HM-10/10 could not be determined, as the percentage of HM-10/10 was higher at the end of the time course than at the beginning (Table 3, Figure 3). […] Samples were tested at 2 µM.
The instrument was equipped with an electrospray ionization source (600 °C) operated in the positive-ion mode.

Series [2] can be described thus: in vitro. Particulars: human, plasma, pH 7.4.
Method: (§3) The supernatant was removed and incubated at 37 °C for at least 10 min before use. The pH of each matrix was checked and adjusted to pH 7.4 using 10% phosphoric acid or 1 N sodium hydroxide as necessary.
(§4) Test and control article stock solutions were spiked (1.5 µL) into matrix (0.749 mL) to a final assay concentration of 2 µM and mixed. […] These tubes were sealed and incubated at 37 °C with shaking.
(§5) The quenched samples were mixed briefly by vortexing and stored in a −20 °C freezer.
(§6) Sample plates were stored refrigerated until analysis.
(§7) The column was set to a temperature of 55 °C. […] The instrument was equipped with an electrospray ionization source (500 °C) operated in positive-ion mode.
(§8) Peak area ratios for IS-normalized test article and control article counts were used to calculate the percent remaining relative to the time zero (T0) value. As appropriate, results were plotted and further analyzed to calculate half-life (T1/2) values.
(§9) Mean peak ratios were used to calculate the percent remaining relative to the T0 value: % Remaining at Timex = (mean peak area ratio Tx/mean peak ratio T0) × 100.
The nature of series [3]: in vitro. Particulars: Sprague-Dawley, rat, plasma, pH 7.4.
Method: as §3, §4, §5, §6, §7, §8, §9
Series [4] can be described thus: in vitro. The settings on record: beagle, dog, plasma, pH 7.4.
Method: as §3, §4, §5, §6, §7, §8, §9
A short description of series [5]: in vitro. The settings on record: cynomolgus monkey, plasma, pH 7.4.
Method: as §3, §4, §5, §6, §7, §8, §9
Series [6] can be described thus: in vitro. The settings on record: CD-1, mouse, plasma, pH 7.4.
Method: as §3, §4, §5, §6, §7, §8, §9
Series [7] concerns the target T1, CYP2D6 (Homo sapiens, UniProt P10635).
For series [8], the target named is T1, CYP2D6. Nature of the series: in vitro. Particulars: both, microsomes.
Series [9] deals with CYP2B6. The series can be described thus: CYP2B6 induction (enzyme activity) in single-donor human hepatocytes. The settings on record: 1000 µM (positive control). How it is done: The transport medium was replaced with 200 μL of warm (37 °C) incubation medium (InVitroGRO HI, BioIVT Catalog No. Z99009) and the plate was placed in a humidified 5% carbon dioxide incubator at 37 °C for 24 h.
In addition, test article vehicle (PBS) was added to warm (37°C) InVitroGRO HI Medium in a 5:95 (v:v) ratio. […] The plates were removed from the incubator and the hepatocytes were prepared for the induction assay by replacing the cell culture medium with medium containing either the test article, a control inducer, or vehicle control (200 µL per well). The hepatocyte plates were returned to the cell culture incubator and incubated for 24 h.
On Day 3, induction was repeated following the same steps as described above for the previous day, and plates were returned to the cell culture incubator for an additional 24 h.
After aliquots were taken to measure test article stability, all the remaining medium from each well in the hepatocyte plate was removed, all wells were washed once using 200 μL of blank assay buffer, and then 100 μL of the 1000-fold diluted substrate solutions were added to the appropriate wells. The assay plate was returned to the humidified 5% carbon dioxide incubator at 37 °C for 1 h incubation.
At the end of the incubation time, 100 μL of mRNA lysis buffer was added to each well to stop the reaction. Fifty microliters of this reaction mixture were transferred into a new plate and quenched with 200 μL of ice-cold acetonitrile containing a CYP-specific stable labeled internal standard (250 ng/mL acetaminophen-d4, 250 ng/mL hydroxybupropion-d6, or 250 ng/mL hydroxytestosterone-d3). After removal of the aliquots from the plate for enzyme activity determination, the assay plates were sealed and stored in a −70 °C freezer until use for RT-PCR, mRNA analysis.
For the induction assay samples, an aliquot (50 µL) of the supernatant was transferred to a new plate and diluted with 100 µL Milli-Q water. For the test article stability samples, an aliquot (50 µL) of the supernatant was transferred to a new plate and diluted with 60 µL 0.1% formic acid in Milli-Q water. These samples for the enzyme activity assay and article stability test were refrigerated for storage until analysis. […]
HM1010: Induction Potential of Cytochrome P450 Enzymes
(CYP1A2, CYP2B6 and CYP3A4) Using Human Cryopreserved Hepatocytes
Testing Facility Study No.
The purpose of this in-vitro study was to determine the induction potential of HM1010 on human
cytochrome P450 (CYP) isoenzyme (1A2, 2B6 and 3A4) activity. The study design is
Matrix: Inducible cryopreserved human hepatocytes three single-donor lots
Assay Buffer: InVitroGRO KHB
Substrates: Phenacetin (1A2), Bu propion (2B6), and Testosterone (3A4)
Assay conditions: 48 hours at 37°C in humidified 5% carbon dioxide incubator
Analysis: LC-MS/MS (enzyme activity) and mRNA analysis

For series [10], the system named is CYP2B6. The series can be described thus: CYP2B6 induction (mRNA expression) in single-donor human hepatocytes. It is filed as in vitro ADME. Particulars: 1000 µM (control). The method, then: RNA isolation and quantification: E-Z 96 Total RNA Kit (Omega Bio-tek, Catalog No. R1034-02) was used for RNA isolation and Quant-iT RNA assay kit (ThermoFisher, Catalog No. Q33140) was used for RNA quantification. The plates were removed from a −80 °C freezer and equilibrated to room temperature. RNA was extracted using the manufacturer’s recommended protocol. Eighty-one microliters of 100% ethanol were added into each well containing 150 µL of lysed sample to make a final ethanol concentration at 35%.
cDNA generation: For cDNA generation, a High-Capacity cDNA Reverse Transcription Kit (Applied Biosystems, Catalog No. 4319983) and QuantStudio 3 PCR system (Applied Biosystems) were used. In this step, 2X Reverse Transcription Master Mix was prepared using the contents of the kit. Then, 10 µL of total RNA was added to 10 µL of 2X Reverse Transcription Master Mix in a microplate and the plate was sealed. This plate was then run in a thermocycler to generate cDNA.
Real time PCR: SsoAdvanced Universal SYBR® Green Supermix (BIO-RAD, Catalog No. 172-5270) and the QuantStudio 3 Real-Time PCR system (Applied Biosystems) were used to perform real-time PCR on the generated cDNA. In this step, a PCR mix was prepared using PCR Supermix, SYBR® primers for the targeted genes, and nuclease-free water. Two microliters of ten-fold diluted cDNA samples (5 µL of cDNA into 45 μL of nuclease-free water) were added to 8 µL of PCR Mix in a microplate and sealed. This plate was then run through the Real-Time PCR system to generate the mRNA expression data.
• Human GAPDH • F: […] • R: […] • Human CYP1A2 • Unique Assay ID: qHsaCID0015160 • Chromosome Location: 15:75045562-75047256 • Human CYP2B6 • F: […] • R: […] • Human CYP3A4 • F: […] • R: […]

Series [11] in a line: Stability in simulated gastric fluid (SGF). It is filed as in vitro ADME. Particulars: SGF pH 1.3. The method, then:
(§1) When developing any potentially oral-route pharmaceutical agent, the denaturing and pepsin-rich environment of the stomach must be considered. The stability of HM-10/10 was tested in simulated gastric fluid (SGF) and simulated intestinal fluid (SIF) over 120 min. […] Samples were tested at 2 μM.
(§2) For the HM-10/10 stability assay in simulated gastric and intestinal fluids, propantheline was used to confirm retention time and carbutamide was used as the internal standard for calculations.

A short description of series [12]: Stability in simulated intestinal fluid (SIF). It is filed as in vitro ADME. Particulars: simulated intestinal fluid (SIF), SIF pH 5.5. The method, then: as §1, §2
In a further series the target is T2, CYP2C8 (Homo sapiens, UniProt P10632).
T2 sequence (P10632 1-490): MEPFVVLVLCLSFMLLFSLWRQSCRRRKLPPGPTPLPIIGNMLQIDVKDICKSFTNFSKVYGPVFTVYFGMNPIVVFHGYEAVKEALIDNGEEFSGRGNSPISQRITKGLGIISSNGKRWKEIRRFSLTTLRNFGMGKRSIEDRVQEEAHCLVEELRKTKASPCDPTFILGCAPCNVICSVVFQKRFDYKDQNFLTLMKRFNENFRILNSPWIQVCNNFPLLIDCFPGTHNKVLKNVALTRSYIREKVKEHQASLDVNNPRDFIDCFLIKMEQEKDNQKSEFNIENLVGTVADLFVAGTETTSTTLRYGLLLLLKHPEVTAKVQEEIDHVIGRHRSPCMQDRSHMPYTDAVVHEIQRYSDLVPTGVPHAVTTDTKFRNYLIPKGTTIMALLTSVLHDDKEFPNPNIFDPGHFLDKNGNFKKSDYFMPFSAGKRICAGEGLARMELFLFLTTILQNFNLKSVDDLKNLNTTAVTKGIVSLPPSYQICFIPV
The series can be described thus: CYP450 time-dependent inhibition, CYP2C8, pooled human liver microsomes. The settings on record: Amodiaquine (2C8). Background: Liver microsomes are a subcellular fraction often used to study metabolism.

A further series concerns the target CYP2C9 (Homo sapiens, UniProt P11712).
Where [13] appears, read: both, human, microsomes, pH 7.4.

For orientation: half-life means how long it takes for the measured level to halve. The term inhibition denotes the percentage by which the read-out fell short of the control. One may read the % Inhibition as the relative decrease from the control value, in per cent.

Read-outs that look alike come from different tables or passages of the source.

Sequence of CYP2C9 (P11712 whole entry): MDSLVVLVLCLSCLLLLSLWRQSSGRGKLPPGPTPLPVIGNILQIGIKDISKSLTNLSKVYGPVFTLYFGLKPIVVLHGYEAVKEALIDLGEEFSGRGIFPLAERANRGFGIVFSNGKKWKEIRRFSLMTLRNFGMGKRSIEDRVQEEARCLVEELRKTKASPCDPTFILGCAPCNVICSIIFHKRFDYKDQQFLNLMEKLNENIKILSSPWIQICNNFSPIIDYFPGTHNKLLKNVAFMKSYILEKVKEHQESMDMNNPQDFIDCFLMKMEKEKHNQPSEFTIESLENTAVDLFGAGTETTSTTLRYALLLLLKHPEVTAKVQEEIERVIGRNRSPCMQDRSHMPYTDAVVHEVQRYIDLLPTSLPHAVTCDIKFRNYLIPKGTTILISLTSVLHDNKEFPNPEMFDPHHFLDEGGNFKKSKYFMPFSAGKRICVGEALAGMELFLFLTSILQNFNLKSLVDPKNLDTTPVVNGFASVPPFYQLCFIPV
T1 sequence (P10635 whole entry): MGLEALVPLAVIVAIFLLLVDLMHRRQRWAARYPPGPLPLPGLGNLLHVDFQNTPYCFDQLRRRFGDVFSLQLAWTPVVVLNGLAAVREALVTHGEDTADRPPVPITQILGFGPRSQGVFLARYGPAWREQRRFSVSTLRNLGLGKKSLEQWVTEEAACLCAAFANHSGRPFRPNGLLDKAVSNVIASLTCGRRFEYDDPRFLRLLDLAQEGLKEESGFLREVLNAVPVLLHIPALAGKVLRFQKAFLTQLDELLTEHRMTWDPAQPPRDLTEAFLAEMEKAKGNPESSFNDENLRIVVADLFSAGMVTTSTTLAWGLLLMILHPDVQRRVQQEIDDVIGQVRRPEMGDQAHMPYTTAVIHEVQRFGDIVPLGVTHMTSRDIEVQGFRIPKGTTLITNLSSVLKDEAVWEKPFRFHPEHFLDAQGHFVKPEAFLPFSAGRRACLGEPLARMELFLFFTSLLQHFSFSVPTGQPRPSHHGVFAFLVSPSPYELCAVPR

For the compound `CCOc1ccc2ccc(=O)oc2c1` [7-Ethoxycoumarin, reference compound], the figures for the half-life at 2 µM in series [1] (Acidic (pH 1.3)), in series [1] (Physiological pH (pH 7.4)) and in series [1] (Slightly Acidic (pH 5.5)) were 13.5 h, 11.8 h and 16.5 h, respectively. Further, the share remaining at 1 h, 2 µM in [1] (Acidic (pH 1.3)) is 89%; in [1] (Physiological pH (pH 7.4)), 87.5%; in [1] (Slightly Acidic (pH 5.5)), 90%.

For `CC[C@H](C)C(=O)O[C@H]1C[C@@H](C)C=C2C=C[C@H](C)[C@H](CC[C@@H]3C[C@@H](O)CC(=O)O3)[C@H]21` [Lovastatin, lovastatin], the half-life at 2 µM was 10.8 h in “in vitro [2]”; 0.138 h in “in vitro [3]”; 7.42 h in “in vitro [4]”; above 2 h in the series “in vitro [5]”; 0.24 h in “in vitro [6]”. Moreover, the amount remaining at 2 h, 2 µM worked out at 81.1% in “in vitro [2]”, 73.2% in “in vitro [4]” and 115% in the series “in vitro [5]”.

For the compound `Fc1ccc([C@@H]2CCNC[C@H]2COc2ccc3c(c2)OCO3)cc1` [Paroxetine, paroxetine], the “Comments (time-dependent inhibition)” value on CYP2D6 [7] was “+TDI”. Further, the inhibition at 30 min, 50 µM at CYP2D6 [8] (pH 7.4, % Inhibition at 50 µM No PI + NADPH) came out at 99%; on CYP2D6 [8] (pH 7.4, % Inhibition at 50 µM No PI − NADPH), 99.1%; on CYP2D6 [8] (pH 7.4, % Inhibition at 50 µM PI + NADPH) it was 100%; against CYP2D6 [8] (pH 7.4, % Inhibition at 50 µM PI − NADPH) it was 99%.

Regarding `CCC1(c2ccccc2)C(=O)NC(=O)NC1=O` [Phenobarbital, phenobarbital, reference compound], in the series on CYP2B6 [9], the “Fold Increase (Enzyme Activity) Lot HH1086” value is 11.8 fold, the “Fold Increase (Enzyme Activity) Lot HH1142” value is reported as 21.4 fold and the “Fold Increase (Enzyme Activity) Lot HH1144” value was 7.23 fold. Moreover, the “Fold Increase (Enzyme Activity) Mean” value with CYP2B6 [9] (mean of three lots) was determined as 13.5 fold. Moreover, in the series with CYP2B6 [10], the “Comments (mRNA induction)” value is on record as “Induced as Expected”, the “Fold Increase (mRNA Expression) Lot HH1086” value was found to be 15.5 fold, the “Fold Increase (mRNA Expression) Lot HH1142” value is recorded as 22.3 fold and the “Fold Increase (mRNA Expression) Lot HH1144” value amounted to 7.54 fold. In the series on CYP2B6 [10], the “Fold Increase (mRNA Expression) Mean of 3 Lots” value is reported as 15.1 fold.

Take `CC(C)[N+](C)(CCOC(=O)C1c2ccccc2Oc2ccccc21)C(C)C` [Propantheline, propantheline]: the half-life at 2 µM in [11] was 8.7 h; in series [12], 13.6 h; in “in vitro [2]” it was 0.76 h; in the series “in vitro [3]”, 77.5 h; in “in vitro [4]” it was 4.1 h; in the series “in vitro [5]” it was 11.1 h. In “in vitro [6]”, this compound came in with a half-life at 2 µM of 1.17 h. The fraction remaining at 2 h, 2 µM in the series “in vitro [2]” came out at 13.3%; in the series “in vitro [3]” it was 95%; in “in vitro [4]”, 65.7%; in “in vitro [5]”, 80.3%; in “in vitro [6]”, 27%.

Take `O=c1c(O)c(-c2ccc(O)c(O)c2)oc2cc(O)cc(O)c12` [Quercetin, quercetin]: the “Comments (time-dependent inhibition)” value at CYP2C8 is “No TDI”. Moreover, at CYP2C8 (50 µM, No PI + NADPH), the “% Inhibition at 50 µM No PI + NADPH” value was found to be 100.5%. Further, on CYP2C8 (50 µM, No PI − NADPH), the “% Inhibition at 50 µM No PI − NADPH” value was determined as 100.9%. Moreover, at CYP2C8 (50 µM, PI + NADPH), the “% Inhibition at 50 µM PI + NADPH” value came out at 100.8%. In addition, the “% Inhibition at 50 µM PI − NADPH” value on CYP2C8 (50 µM, PI − NADPH) came out at 100.5%.

For the compound `Nc1ccc(S(=O)(=O)Nc2ccnn2-c2ccccc2)cc1` [Sulfaphenazole, sulfaphenazole], on CYP2C9, the “Comments (time-dependent inhibition)” value was “No TDI”. Also, on CYP2C9 (setting [13]), the “% Inhibition at 50 µM No PI + NADPH” value is on record as 99.2%, the “% Inhibition at 50 µM No PI − NADPH” value was 99.1%, the “% Inhibition at 50 µM PI + NADPH” value came out at 99.7% and the “% Inhibition at 50 µM PI − NADPH” value was 99.9%.
